Our source for the EC50 values is patent US11110082B2, “Tyrosine kinase inhibitors” (Rigel Pharmaceuticals, Inc., priority 2016, dated 2021).

pEC50: −log10 of the molar value.

The assay addresses T1, MerTK (Homo sapiens, UniProt Q12866).
T1 construct: Seed HUVECs (10K cells/well) in EBM-2 complete media; host or cells: HUVEC (primary human umbilical vein endothelial cells)
T1 sequence (Q12866 21-999): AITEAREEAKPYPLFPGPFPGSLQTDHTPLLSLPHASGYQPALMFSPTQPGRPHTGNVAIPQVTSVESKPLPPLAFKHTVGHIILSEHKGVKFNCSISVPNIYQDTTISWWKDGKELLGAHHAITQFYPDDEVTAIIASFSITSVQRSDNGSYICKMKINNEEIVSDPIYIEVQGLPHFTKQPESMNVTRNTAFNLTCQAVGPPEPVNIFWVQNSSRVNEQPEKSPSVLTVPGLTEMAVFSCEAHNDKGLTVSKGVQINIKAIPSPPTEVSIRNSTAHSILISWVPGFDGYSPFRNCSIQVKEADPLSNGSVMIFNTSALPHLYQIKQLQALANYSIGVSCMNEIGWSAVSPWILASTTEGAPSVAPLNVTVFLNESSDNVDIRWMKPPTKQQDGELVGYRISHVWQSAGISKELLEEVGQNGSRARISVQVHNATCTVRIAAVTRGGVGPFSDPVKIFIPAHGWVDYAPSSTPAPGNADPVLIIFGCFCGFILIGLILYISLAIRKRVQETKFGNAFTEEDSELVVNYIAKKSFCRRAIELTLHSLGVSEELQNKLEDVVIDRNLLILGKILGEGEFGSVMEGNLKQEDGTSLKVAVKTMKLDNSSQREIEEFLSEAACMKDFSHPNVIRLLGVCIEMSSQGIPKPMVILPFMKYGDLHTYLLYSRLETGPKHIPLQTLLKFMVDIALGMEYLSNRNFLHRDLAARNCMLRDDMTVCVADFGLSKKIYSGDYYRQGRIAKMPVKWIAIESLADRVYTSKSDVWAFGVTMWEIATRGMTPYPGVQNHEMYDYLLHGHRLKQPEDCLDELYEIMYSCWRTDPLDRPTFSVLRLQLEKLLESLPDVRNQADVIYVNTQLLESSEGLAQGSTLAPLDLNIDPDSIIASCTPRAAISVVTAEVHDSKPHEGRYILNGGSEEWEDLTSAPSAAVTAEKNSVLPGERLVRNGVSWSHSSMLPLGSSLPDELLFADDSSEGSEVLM
Put plainly: PAKT HTRF-HUVEC assay (pAkt Ser473 HTRF after anti-human MerTK-XL stimulation). Type of assay: cell-based. Conditions: HUVEC cells, 1 hour compound, stimulated with anti-human MerTK-XL 1 ug/mL for 10 minutes, read-out: inhibition of MerTK. The procedure: Example 4: PAKT HTRF-HUVEC Assay Phospho Akt (Ser473) Assay kit-10,000 tests (Cisbio US, 64[…]) HUVEC cells (Lonza, CC-2519) Anti-human MerTK antibody (Clone 125518) (R&D Systems, MAB8912) Method Seed HUVECs (10K cells/well) in EBM-2 complete media (EBM-2 basal medium plus EGM-2 BulletKit supplements) overnight at 37° C., 5% CO2 in Costar 96-well white clear-bottom plates. Remove culture media and starve cells for 3-4 hours in 50 μL/well EBM-2 basal medium. Perform serial dilution of compounds in DMSO from 2.5 mM in 4-fold dilutions, and then dilute 1:125 in EBM-2 basal media. Mix 50 μL/well 2x compounds with 50 μL/well HUVECs in duplicate in Costar 96-well white clear-bottom plates. Incubate plates for 1 hour at 37° C., 5% CO2. Cross-link anti-human MerTK antibody to Biotin-SP-conjugated anti-mouse IgG antibody (1:1) to give final concentrations of 5 ug/mL of anti-human MerTK-XL. Stimulate HUVECs with 25 μL/well 5x anti-human MerTK-XL to give final concentrations of 1 ug/mL for 10 minutes at 37° C., 5% CO2. Completely remove media and lyse HUVECs with 40 uL/WELL per well of Cisbio HTRF 1× lysis buffer. Performed pAkt(Ser473) HTRF assay in ProxiPlate-384 Plus, white 384-shallow well microplate according to the vendor protocol and read plates with a SpectralMax Paradigm plate reader. Enter the HTRF values into Athena (Rigel) for curve fitting, EC50 calculation, and database storage.
Consider `CN1CCN(Cc2ccc3c(c2)c(=O)n([C@H]2CC[C@H](O)CC2)c2nc(NCCC4CC4)ncc32)CC1` [Compound 26, trans-3-((2-Cyclopropylethyl)amino)-5-(4-hydroxycyclohexyl)-8-((4-methylpiperazin-1-yl)methyl)pyrimido[4,5-c]isoquinolin-6(5H)-one], for which the pEC50 is 7.78.

In the case of `O=c1c2cc(CN3CCOCC3)ccc2c2cnc(NCCC3CC3)nc2n1[C@H]1CC[C@H](O)CC1` [Compound 27, trans-3-((2-Cyclopropylethyl)amino)-5-(4-hydroxycyclohexyl)-8-(morpholinomethyl)pyrimido [4,5-c]isoquinolin-6(5H)-one], the pEC50 was 7.34.

Turning to `CN1CCN(Cc2ccc3c(c2)c(=O)n(C2CCC(C)(O)CC2)c2nc(NCC4CC4)ncc32)CC1` (stereo not drawn) [Compound 28, trans-3-((Cyclopropylmethyl)amino)-5-(4-hydroxy-4-methylcyclohexyl)-8-((4-methylpiperazin-1-yl)methyl)pyrimido[4,5-c]isoquinolin-6(5H)-one], the pEC50 was 7.44.

Regarding `CN1CCN(Cc2ccc3c(c2)c(=O)n([C@H]2CC[C@](C)(O)CC2)c2nc(NCCC4CC4)ncc32)CC1` [Compound 29, trans-3-((2-Cyclopropylethyl)amino)-5-(4-hydroxy-4-methylcyclohexyl)-8-((4-methylpiperazin-1-yl)methyl)pyrimido[4,5-c]isoquinolin-6(5H)-one], the pEC50 was 8.21.

As for `CC(C)N1CCN(Cc2ccc3c(c2)c(=O)n([C@H]2CC[C@H](O)CC2)c2nc(NCC4CC4)ncc32)CC1` [Compound 30, trans-3-((Cyclopropylmethyl)amino)-5-(4-hydroxycyclohexyl)-8-((4-isopropylpiperazin-1-yl)methyl)pyrimido[4,5-c]isoquinolin-6(5H)-one], the pEC50 is 7.74.

With `CC(C)N1CCN(Cc2ccc3c(c2)c(=O)n([C@H]2CC[C@](C)(O)CC2)c2nc(NCC4CC4)ncc32)CC1` [Compound 31, trans-3-((Cyclopropylmethyl)amino)-5-(4-hydroxy-4-methylcyclohexyl)-8-((4-isopropylpiperazin-1-yl)methyl)pyrimido[4,5-c]isoquinolin-6(5H)-one], the pEC50 is 7.90.

On to `CC(C)N1CCN(Cc2ccc3c(c2)c(=O)n(C2CCC(C)(O)CC2)c2nc(NCCC4CC4)ncc32)CC1` (stereo not drawn) [Compound 32, trans-3-((2-Cyclopropylethyl)amino)-5-(4-hydroxy-4-methylcyclohexyl)-8-((4-isopropylpiperazin-1-yl)methyl)pyrimido[4,5-c]isoquinolin-6(5H)-one], for which the pEC50 was 8.19.

Regarding `CC(C)N1CCN(Cc2ccc3c(c2)c(=O)n([C@H]2CC[C@H](O)CC2)c2nc(NCC4CCC4)ncc32)CC1` [Compound 33, trans-3-((Cyclobutylmethyl)amino)-5-(4-hydroxycyclohexyl)-8-((4-isopropylpiperazin-1-yl)methyl)pyrimido[4,5-c]isoquinolin-6(5H)-one], the pEC50 is 8.34.

Consider `CN1CCN(Cc2ccc3c(c2)c(=O)n([C@H]2CC[C@](C)(O)CC2)c2nc(NCC4CCC4)ncc32)CC1` [Compound 34, trans-3-((Cyclobutylmethyl)amino)-5-(4-hydroxy-4-methylcyclohexyl)-8-((4-methylpiperazin-1-yl)methyl)pyrimido[4,5-c]isoquinolin-6(5H)-one], for which the pEC50 was 8.13.

Consider `O=c1c2cc(CN3CCN(C4COC4)CC3)ccc2c2cnc(NCC3CC3)nc2n1[C@H]1CC[C@H](O)CC1` [Compound 35, trans-3-((Cyclopropylmethyl)amino)-5-(4-hydroxycyclohexyl)-8-((4-(oxetan-3-yl)piperazin-1-yl)methyl)pyrimido[4,5-c]isoquinolin-6(5H)-one], for which the pEC50 was 7.33.

Turning to `C[C@]1(O)CC[C@H](n2c(=O)c3cc(CN4CCN(C5COC5)CC4)ccc3c3cnc(NCC4CC4)nc32)CC1` [Compound 36, trans-3-((Cyclopropylmethyl)amino)-5-(4-hydroxy-4-methylcyclohexyl)-8-((4-(oxetan-3-yl)piperazin-1-yl)methyl)pyrimido[4,5-c]isoquinolin-6(5H)-one], the pEC50 was 7.77.

Consider `O=c1c2cc(CN3CCC(N4CCCC4)CC3)ccc2c2cnc(NCC3CC3)nc2n1[C@H]1CC[C@H](O)CC1` [Compound 37, trans-3-((Cyclopropylmethyl)amino)-5-(4-hydroxycyclohexyl)-8-((4-(pyrrolidin-1-yl)piperidin-1-yl)methyl)pyrimido[4,5-c]isoquinolin-6(5H)-one], for which the pEC50 was 7.27.

In the case of `C[C@]1(O)CC[C@H](n2c(=O)c3cc(CN4CCC(N5CCCC5)CC4)ccc3c3cnc(NCC4CC4)nc32)CC1` [Compound 38, trans-3-((Cyclopropylmethyl)amino)-5-(4-hydroxy-4-methylcyclohexyl)-8-((4-(pyrrolidin-1-yl)piperidin-1-yl)methyl)pyrimido[4,5-c]isoquinolin-6(5H)-one], the pEC50 is 7.48.

For the compound `O=c1c2cc(CN3CCn4ncnc4C3)ccc2c2cnc(NCC3CC3)nc2n1[C@H]1CC[C@H](O)CC1` [Compound 39, trans-3-((Cyclopropylmethyl)amino)-8-((5,6-dihydro-[1,2,4]triazolo[1,5-a]pyrazin-7(8H)-yl)methyl)-5-(4-hydroxycyclohexyl)pyrimido [4,5-c]isoquinolin-6(5H)-one], the pEC50 was 7.19.

On to `O=c1c2cc(CN3CCN(CC(F)(F)F)CC3)ccc2c2cnc(NCC3CC3)nc2n1[C@H]1CC[C@H](O)CC1` [Compound 40, trans-3-((Cyclopropylmethyl)amino)-5-(4-hydroxycyclohexyl)-8-((4-(2,2,2-trifluoroethyl)piperazin-1-yl)methyl)pyrimido[4,5-c]isoquinolin-6(5H)-one], for which the pEC50 was 7.29.

For the compound `O=c1c2cc(CN3CCN(CC(F)F)CC3)ccc2c2cnc(NCC3CC3)nc2n1[C@H]1CC[C@H](O)CC1` [Compound 43, trans-3-((Cyclopropylmethyl)amino)-8-((4-(2,2-difluoroethyl)piperazin-1-yl)methyl)-5-(4-hydroxycyclohexyl)pyrimido[4,5-c]isoquinolin-6(5H)-one], the pEC50 is 7.29.

As to `CCCCNc1ncc2c3ccc(CN4CCNCC4)cc3c(=O)n([C@H]3CC[C@H](O)CC3)c2n1` [Compound 44, trans-3-(Butylamino)-5-(4-hydroxycyclohexyl)-8-(piperazin-1-ylmethyl)pyrimido[4,5-c]isoquinolin-6(5H)-one], the pEC50 was 7.18.

`O=c1c2cc(CN3CCOCC3)ccc2c2cnc(NCC3CC3)nc2n1[C@H]1CC[C@H](O)CC1` [Compound 45, trans-3-((Cyclopropylmethyl)amino)-5-(4-hydroxycyclohexyl)-8-(morpholinomethyl)pyrimido [4,5-c]isoquinolin-6(5H)-one]: the pEC50 is 6.83.

In the case of `C[C@]1(O)CC[C@H](n2c(=O)c3cc(CN4CCOCC4)ccc3c3cnc(NCC4CC4)nc32)CC1` [Compound 46, trans-3-((Cyclopropylmethyl)amino)-5-(4-hydroxy-4-methylcyclohexyl)-8-(morpholinomethyl)pyrimido [4,5-c]isoquinolin-6(5H)-one], the pEC50 is 6.93.

As for `O=c1c2cc(CN3CCS(=O)(=O)CC3)ccc2c2cnc(NCC3CC3)nc2n1[C@H]1CC[C@H](O)CC1` [Compound 49, trans-3-((Cyclopropylmethyl)amino)-8-((1,1-dioxidothiomorpholino)methyl)-5-(4-hydroxycyclohexyl)pyrimido [4,5-c]isoquinolin-6(5H)-one], the pEC50 was 6.66.
